Assay results taken from PMC11007962, “First-in-human study of GFH018, a small molecule inhibitor of transforming growth factor-β receptor I inhibitor, in patients with advanced solid tumors” (BMC Cancer, 2024).
Marks after values point to notes of the source that are not given here.

Columns and labels:
[1] = test system: recurrent/metastatic nasopharyngeal carcinoma (R/M NPC); set-up: method as in doi:10.1200/JCO.2023.41.16_suppl.6026; conditions: ongoing phase Ib/II study; cited from earlier work
[2] = Plasma pharmacokinetics (LC-MS/MS, noncompartmental analysis); type: in vivo, human
Method: For patients enrolled in the escalation part of the study, PK blood samples were collected at C1D1 predose; 0.5 h, 1 h, 2 h, 4 h, 8 h, and 12 h postdose; d 2 (24 h), d 3 (48 h), d 4 (72 h), and d 10 predose; d 17 (for 14 d-on/14 d-off regimen) or d 24 (for 7 d-on/7 d-off regimen) predose; and 0.5 h, 1 h, 2 h, 4 h, 8 h, and 12 h postdose. For patients enrolled in the expansion part, PK samples were collected predose on the last administration day and 0.5 h, 1 h, 2 h, 4 h, 8 h, and 12 h postdose on the last administration day. GFH018 levels in plasma samples were analyzed using a validated liquid chromatography-tandem mass spectrometry method. GFH018 PK parameters were determined using noncompartmental analysis methods and calculated using Phoenix WinNonlin Version 8.3.1 (Certara, Princeton, NJ, USA). GFH018 plasma concentrations and PK parameters were summarized descriptively according to the dose level.

[3] = test system: pSMAD3; set-up: method as in preclinical studies (reference not given); conditions: mouse H22 models, ref preclinical studies (reference not given), cited from earlier work
[4] = multiple dose, 5 mg BID 14d-on/14d-off (N=3)
[5] = multiple dose, 10 mg BID 14d-on/14d-off (N=3)
[6] = multiple dose, 20 mg BID 14d-on/14d-off (N=3)
[7] = multiple dose, 30 mg BID 14d-on/14d-off (N=7)
[8] = multiple dose, 40 mg BID 14d-on/14d-off (N=3)
[9] = multiple dose, 50 mg BID 14d-on/14d-off (N=2)
[10] = multiple dose, 65 mg BID 14d-on/14d-off (N=6)
[11] = multiple dose, 85 mg BID 7d-on/7d-off (N=5)
[12] = multiple dose, 85 mg BID 14d-on/14d-off (N=7), escalation and expansion parts combined
[13] = single dose, 5 mg BID 14d-on/14d-off (N = 4)
[14] = single dose, 10 mg BID 14d-on/14d-off (N = 3)
[15] = single dose, 20 mg BID 14d-on/14d-off (N = 4)
[16] = single dose, 30 mg BID 14d-on/14d-off (N = 7)
[17] = single dose, 40 mg BID 14d-on/14d-off (N = 4)
[18] = single dose, 50 mg BID 14d-on/14d-off (N = 4)
[19] = single dose, 65 mg BID 14d-on/14d-off (N = 6)
[20] = single dose, 85 mg BID 7d-on/7d-off (N = 6)
[21] = single dose, 85 mg BID 14d-on/14d-off (N = 9), dose escalation part only

## Cc1cccc(-c2nn3c(c2-c2ccc4ncnn4c2/C=C/C(N)=O)CCC3)n1 [GFH018]
[1]
  efficacy in combination with toripalimab: promising efficacy was shown
[2]; 5 – 85 mg
  PK linearity: linear and dose-independent
[2]; 5 – 85 mg (single and multiple dose)
  mean half-life: 2.25 to 8.60 h
[2]; all cohorts
  geometric CV% of exposure (Cmax and AUC) at the steady state: 7.3–168.9%
[2]; [4]
  AUCtau, geometric mean (geometric CV): 597 (61.1) h*ng/mL
  Cmax, geometric mean (geometric CV): 165 (15.7) ng/mL
  Cmin, geometric mean (geometric CV): 7.48 (208.2) ng/mL
  Racc (accumulation ratio calculated by AUC), geometric mean (geometric CV): 1.02 (37.9)
  Tmax, median (minimum, maximum): 0.88 (0.42, 0.95) h
  t1/2, geometric mean (geometric CV): 2.67 (31.0) h
[2]; [5]
  AUCtau, geometric mean (geometric CV): 997 (168.9) h*ng/mL
  Cmax, geometric mean (geometric CV): 291 (124.9) ng/mL
  Cmin, geometric mean (geometric CV): 15.8 (212.1) ng/mL
  Racc (accumulation ratio calculated by AUC), geometric mean (geometric CV): 1.22 (40.3)
  Tmax, median (minimum, maximum): 0.92 (0.90, 1.27) h
  t1/2, geometric mean (geometric CV): 2.25 (26.5) h
[2]; [6]
  AUCtau, geometric mean (geometric CV): 2056 (76.9) h*ng/mL
  Cmax, geometric mean (geometric CV): 676 (48.0) ng/mL
  Cmin, geometric mean (geometric CV): 25.5 (137.3) ng/mL
  Racc (accumulation ratio calculated by AUC), geometric mean (geometric CV): 1.15 (17.4)
  Tmax, median (minimum, maximum): 0.93 (0.57, 1.08) h
  t1/2, geometric mean (geometric CV): 2.55 (24.6) h
[2]; [7]
  AUCtau, geometric mean (geometric CV): 5605 (76.6) h*ng/mL
  Cmax, geometric mean (geometric CV): 1167 (87.9) ng/mL
  Cmin, geometric mean (geometric CV): 144 (107.2) ng/mL
  Racc (accumulation ratio calculated by AUC), geometric mean (geometric CV): 1.32 (39.4)
  Tmax, median (minimum, maximum): 1.10 (0.47, 2.58) h
  t1/2, geometric mean (geometric CV): 4.09 (36.8) h
[2]; [8]
  AUCtau, geometric mean (geometric CV): 5144 (30.3) h*ng/mL
  Cmax, geometric mean (geometric CV): 1599 (33.7) ng/mL
  Cmin, geometric mean (geometric CV): 21.0 (2741.3) ng/mL
  Racc (accumulation ratio calculated by AUC), geometric mean (geometric CV): 1.18 (6.7)
  Tmax, median (minimum, maximum): 0.88 (0.38, 1.00) h
  t1/2, geometric mean (geometric CV): 2.45 (42.8) h
[2]; [9]
  AUCtau, geometric mean (geometric CV): 4432 (43.6) h*ng/mL
  Cmax, geometric mean (geometric CV): 1253 (7.3) ng/mL
  Cmin, geometric mean (geometric CV): 91.4 (72.9) ng/mL
  Racc (accumulation ratio calculated by AUC), geometric mean (geometric CV): 1.26 (9.2)
  Tmax, median (minimum, maximum): 0.75 (0.50, 1.00) h
  t1/2, geometric mean (geometric CV): 3.53 (3.1) h
[2]; [10]
  AUCtau, geometric mean (geometric CV): 8189 (29.3) h*ng/mL
  Cmax, geometric mean (geometric CV): 2303 (34.0) ng/mL
  Cmin, geometric mean (geometric CV): 129 (51.8) ng/mL
  Racc (accumulation ratio calculated by AUC), geometric mean (geometric CV): 1.17 (25.3)
  Tmax, median (minimum, maximum): 1.88 (0.50, 2.00) h
  t1/2, geometric mean (geometric CV): 2.59 (9.6) h
[2]; [11]
  AUCtau, geometric mean (geometric CV): 7732 (46.8) h*ng/mL
  Cmax, geometric mean (geometric CV): 2193 (29.1) ng/mL
  Cmin, geometric mean (geometric CV): 115 (92.5) ng/mL
  Racc (accumulation ratio calculated by AUC), geometric mean (geometric CV): 1.04 (32.5)
  Tmax, median (minimum, maximum): 0.50 (0.50, 1.00) h
  t1/2, geometric mean (geometric CV): 2.92 (18.3) h
[2]; [12]
  AUCtau, geometric mean (geometric CV): 11353 (27.9) h*ng/mL
  Cmax, geometric mean (geometric CV): 3034 (33.6) ng/mL
  Cmin, geometric mean (geometric CV): 164 (54.3) ng/mL
  Tmax, median (minimum, maximum): 0.50 (0.50, 2.05) h
[2]; multiple dose, 85 mg BID 14d-on/14d-off (N=7), n=5 for Racc
  Racc (accumulation ratio calculated by AUC), geometric mean (geometric CV): 1.18 (24.1)^e
[2]; multiple dose, 85 mg BID 14d-on/14d-off (N=7), n=5 for t1/2
  t1/2, geometric mean (geometric CV): 3.01 (20.0)^d h
[2]; multiple doses
  geometric mean accumulation ratio (Racc, by AUC) across all dose groups: 1.02–1.32
[2]; multiple doses / overall, 5–85 mg
  increase of exposure with dose: increased in an approximately proportional manner
[2]; multiple doses, any cohort
  accumulation: No obvious accumulation
[2]; oral
  absorption after oral administration: rapidly absorbed
[2]; single dose, 5–85 mg
  increase of plasma exposure (AUC0-t and Cmax) with dose: increased in an approximately proportional manner
[2]; [13]
  AUC0-12, geometric mean (geometric CV): 690 (51.3) h*ng/mL
  AUC0-inf, geometric mean (geometric CV): 769 (58.3) h*ng/mL
  AUC0-t, geometric mean (geometric CV): 754 (58.4) h*ng/mL
  Cmax, geometric mean (geometric CV): 215 (50.2) ng/mL
  Tmax, median (minimum, maximum): 0.65 (0.40, 0.97) h
  t1/2, geometric mean (geometric CV): 4.42 (82.9) h
[2]; [14]
  AUC0-12, geometric mean (geometric CV): 819 (99.0) h*ng/mL
  AUC0-inf, geometric mean (geometric CV): 864 (110.5) h*ng/mL
  AUC0-t, geometric mean (geometric CV): 852 (111.3) h*ng/mL
  Cmax, geometric mean (geometric CV): 250 (72.2) ng/mL
  Tmax, median (minimum, maximum): 0.88 (0.42, 0.93) h
  t1/2, geometric mean (geometric CV): 3.11 (106.3) h
[2]; [15]
  AUC0-12, geometric mean (geometric CV): 2551 (107.3) h*ng/mL
  AUC0-inf, geometric mean (geometric CV): 2825 (123.9) h*ng/mL
  AUC0-t, geometric mean (geometric CV): 2802 (123.7) h*ng/mL
  Cmax, geometric mean (geometric CV): 743 (65.1) ng/mL
  Tmax, median (minimum, maximum): 0.49 (0.43, 1.03) h
  t1/2, geometric mean (geometric CV): 4.90 (115.1) h
[2]; [16]
  AUC0-12, geometric mean (geometric CV): 4250 (50.4) h*ng/mL
  AUC0-inf, geometric mean (geometric CV): 4926 (47.8) h*ng/mL
  AUC0-t, geometric mean (geometric CV): 4895 (48.2) h*ng/mL
  Cmax, geometric mean (geometric CV): 972 (82.7) ng/mL
  Tmax, median (minimum, maximum): 0.95 (0.37, 3.80) h
  t1/2, geometric mean (geometric CV): 5.74 (37.6) h
[2]; [17]
  AUC0-12, geometric mean (geometric CV): 4147 (30.3) h*ng/mL
  AUC0-inf, geometric mean (geometric CV): 4603 (35.2) h*ng/mL
  AUC0-t, geometric mean (geometric CV): 4561 (35.3) h*ng/mL
  Cmax, geometric mean (geometric CV): 1180 (24.7) ng/mL
  Tmax, median (minimum, maximum): 0.69 (0.37, 0.90) h
[2]; single dose, 40 mg BID 14d-on/14d-off (N = 4), n=3 for t1/2
  t1/2, geometric mean (geometric CV): 8.60 (103.8)^b h
[2]; [18]
  AUC0-12, geometric mean (geometric CV): 5100 (57.9) h*ng/mL
  AUC0-inf, geometric mean (geometric CV): 5906 (49.3) h*ng/mL
  AUC0-t, geometric mean (geometric CV): 5858 (50.2) h*ng/mL
  Cmax, geometric mean (geometric CV): 1209 (85.4) ng/mL
  Tmax, median (minimum, maximum): 0.96 (0.47, 1.92) h
  t1/2, geometric mean (geometric CV): 5.93 (51.2) h
[2]; [19]
  AUC0-12, geometric mean (geometric CV): 7028 (10.9) h*ng/mL
  AUC0-inf, geometric mean (geometric CV): 7870 (17.9) h*ng/mL
  AUC0-t, geometric mean (geometric CV): 7831 (17.8) h*ng/mL
  Cmax, geometric mean (geometric CV): 2172 (16.3) ng/mL
  Tmax, median (minimum, maximum): 0.68 (0.48, 2.00) h
  t1/2, geometric mean (geometric CV): 5.51 (34.3) h
[2]; [20]
  AUC0-12, geometric mean (geometric CV): 7455 (27.3) h*ng/mL
  AUC0-inf, geometric mean (geometric CV): 8284 (28.1) h*ng/mL
  AUC0-t, geometric mean (geometric CV): 8240 (27.9) h*ng/mL
  Cmax, geometric mean (geometric CV): 2555 (29.9) ng/mL
  Tmax, median (minimum, maximum): 0.50 (0.50, 1.10) h
  t1/2, geometric mean (geometric CV): 7.45 (61.8) h
[2]; [21]
  AUC0-12, geometric mean (geometric CV): 10074 (42.0) h*ng/mL
  AUC0-inf, geometric mean (geometric CV): 11164 (45.4) h*ng/mL
  AUC0-t, geometric mean (geometric CV): 11119 (45.5) h*ng/mL
  Cmax, geometric mean (geometric CV): 3225 (35.5) ng/mL
  Tmax, median (minimum, maximum): 0.58 (0.45, 1.12) h
  t1/2, geometric mean (geometric CV): 6.37 (41.6) h
[3]; after the 1-h dose
  effective concentration (efficacy with approximately 50% inhibition of pSMAD3): 125 ng/ml
[3]; at 125 ng/ml after the 1-h dose
  inhibition of pSMAD3 at which efficacy was observed: approximately 50%
